Data on five compounds can be found in PMC3797739, “Identification of Semicarbazones, Thiosemicarbazones and Triazine Nitriles as Inhibitors of Leishmania mexicana Cysteine Protease CPB” (PLoS ONE, 2013).

Usually IC50 stands for the point on the concentration scale where inhibition reaches its midpoint. Usually Ki stands for the equilibrium dissociation constant of an inhibitor or competing ligand from its target.

SMILES strings stand for the structures.

Experiment [1] concerns the target L. mexicana CPB2.8∆CTE (Leishmania mexicana, UniProt P36400). The experiment in a line: CPB2.8∆CTE fluorescence endpoint assay with Z-F-R-AMC substrate. Format: biochemical. The protocol:
(§1) The activities of CPB2.8∆CTE and BtCatB were measured in a homogeneous fluorescence endpoint assay using Z-F-R-AMC as substrate, modified from published methods. The fluorophore AMC (7-amino-4-methylcoumarin) is released by active cysteine protease, and can be detected at 360 nm excitation and 465 nm emission. The assay was optimized for automated high throughput screening on a Biomek FX workstation (Beckman Coulter). All assays were carried out in black 384 well plates at room temperature (22°C). Each plate contained 24 controls in the 23rd and 24th rows of the plate, including 8 positive controls and 8 blanks (without enzyme) as well as 8 inhibitor controls. E-64 was used as standard inhibitor. […] Test compounds available as 10 mM stock solutions in DMSO were diluted further in DMSO, except for the last 1:10 step, which was done in H2O to lower the DMSO concentration in the assay. Final concentrations of the test compounds from 30 µM to 0.3 nM were used. For the L. mexicana CPB2.8∆CTE assay, 5 µl test compound or 5 µl DMSO in acetate buffer (10% DMSO) was added to each well of the microtiter plate. Subsequently, 25 µl of a premix containing sodium acetate buffer (final concentration [f.c.] 100 mM), titriplex II (f.c. 1 mM) (Merck, Darmstadt, Germany), DTT (f.c. 10 mM) (Carl Roth GmbH, Karlsruhe, Germany), triton (f.c. 0.01%) (Merck, Darmstadt, Germany), BSA (f.c. 0.1 mg/ml) (PAA Laboratories GmbH, Pasching, Austria) and enzyme was added to each well, except the wells for the blanks, which include the premix without enzyme. After an incubation time of 10 min, the reaction was started by addition of substrate (20 µl Z-F-R-AMC; f.c. 20 µM). The reaction was stopped after 35 min incubation at room temperature by addition of 10 µl inhibitor E64 (f.c. 16.7 µM) and enzyme activity was measured with a SpectraFluorPlus (Tecan Inc., Durham, NC) plate reader using excitation at 360 nm with emission at 465 nm. The assay procedure for BtCatB was the same as for the CPB2.8∆CTE assay with the exceptions of the final concentration of the substrate Z-F-R-AMC (100 µM) and the stop of the assay using a stop buffer containing sodium acetate and sodium chlorine acetate (f.c. 41.7 mM each).
(§2) The percentage enzyme activity was calculated using the formula (V-B)/(C-B) x 100%, with V being the absorbance of the assay containing the test compound, B being the absorbance of the negative control (‘blank’) and C being the absorbance of the positive control. In primary screening, all compounds of the screening library were tested at 10 µM in double point measurements. Z´ factors, which describe the quality of an assay, were in the range of 0.85-0.99. The Z´ factor is defined in terms of four parameters: the means and standard deviations of both the positive (p) and negative (n) controls: Z´= 1-((3 x (STDEVp + STDEVn))/(MEANp - MEANn)).
(§3) The theoretical hit limit for a HTS primary screen can be calculated as MEAN + 3 x STDEV of inhibitions from diverse compounds. […] In our case, based on a preliminary screen of >3000 diverse compounds, the hit limit was determined between 12.8% and 22.9% inhibition. For practical reasons, screening hit limits are normally set above this limit, aiming at approximately 0.2-0.4% hits from a diverse library. Therefore, 50% inhibition at 10 µM compound concentration compared to the positive controls was considered a hit compound and were subjected to hit verification (IC50 determination from liquid compound stock) using CPB2.8∆CTE and BtCatB to get the activity profile of the compounds. Hit confirmation (IC50 determination from freshly dissolved solid compound stock) was performed for all compounds with an IC50 ≤ 30 µM on CPB2.8∆CTE. Compound concentrations used for IC50 determinations were as follows: 30 µM, 10 µM, 3 µM, 1 µM, 0.3 µM, 0.1 µM, 0.03 µM, 0.01 µM, 0.003 µM, 0.001 µM, and 0.0003 µM. […]

For experiment [2], the system named is L. mexicana CPB2.8∆CTE. The description is as above. Conditions: ratio of IC50 on CPB2.8∆CTE to IC50 on BtCatB. Format: biochemical, Leishmania mexicana. The protocol:
as §1, §2, §3

In experiment [3] the target is T1, bovine cathepsin B (BtCatB) (Bos taurus, UniProt P07688).
T1 construct: purchased Sigma-Aldrich Inc., St. Louis, MO, USA; host or cells: bovine spleen
Nature of the experiment: BtCatB counter assay, fluorescence endpoint with Z-F-R-AMC substrate. Format: biochemical. Conditions: mean ± SD, three independent experiments, substrate Z-F-R-AMC 100 µM. On the procedure:
The activities of CPB2.8∆CTE and BtCatB were measured in a homogeneous fluorescence endpoint assay using Z-F-R-AMC as substrate, modified from published methods. The fluorophore AMC (7-amino-4-methylcoumarin) is released by active cysteine protease, and can be detected at 360 nm excitation and 465 nm emission. The assay was optimized for automated high throughput screening on a Biomek FX workstation (Beckman Coulter). All assays were carried out in black 384 well plates at room temperature (22°C). Each plate contained 24 controls in the 23rd and 24th rows of the plate, including 8 positive controls and 8 blanks (without enzyme) as well as 8 inhibitor controls. E-64 was used as standard inhibitor. […] Test compounds available as 10 mM stock solutions in DMSO were diluted further in DMSO, except for the last 1:10 step, which was done in H2O to lower the DMSO concentration in the assay. Final concentrations of the test compounds from 30 µM to 0.3 nM were used. For the L. mexicana CPB2.8∆CTE assay, 5 µl test compound or 5 µl DMSO in acetate buffer (10% DMSO) was added to each well of the microtiter plate. […] The reaction was stopped after 35 min incubation at room temperature by addition of 10 µl inhibitor E64 (f.c. 16.7 µM) and enzyme activity was measured with a SpectraFluorPlus (Tecan Inc., Durham, NC) plate reader using excitation at 360 nm with emission at 465 nm. […]
The percentage enzyme activity was calculated using the formula (V-B)/(C-B) x 100%, with V being the absorbance of the assay containing the test compound, B being the absorbance of the negative control (‘blank’) and C being the absorbance of the positive control. […]
The theoretical hit limit for a HTS primary screen can be calculated as MEAN + 3 x STDEV of inhibitions from diverse compounds. […]

L. mexicana CPB2.8∆CTE (Leishmania mexicana, UniProt P36400), sequence (P36400 126-343): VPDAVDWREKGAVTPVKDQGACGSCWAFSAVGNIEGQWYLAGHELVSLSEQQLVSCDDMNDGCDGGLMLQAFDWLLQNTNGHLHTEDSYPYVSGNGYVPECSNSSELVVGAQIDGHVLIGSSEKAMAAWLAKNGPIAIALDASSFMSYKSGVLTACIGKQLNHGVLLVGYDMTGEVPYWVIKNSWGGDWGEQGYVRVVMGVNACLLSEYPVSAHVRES

Regarding `CC(C)C[C@H](NC(=O)[C@H]1O[C@@H]1C(=O)O)C(=O)NCCCCNC(=N)N` (relative stereo) [Compound E-64, 1-[N-[(L-3-trans-carboxyoxirane-2-carbonyl)-L-leucyl]amino]-4-guanidinobutane, reference compound], in experiment [1] (final concentration 10 µM, standard inhibitor control of the CPB2.8∆CTE and BtCatB assays), the “inhibition of protease activity” value was “complete inhibition”.
Turning to `NC(=O)N/N=c1\oc2ccccc2cc1-c1nc2ccccc2[nH]1` [CP229988, 3-[(1H-benzimidazol-2-yl)-2H-1-benzopyran-2-ylidene]-2-carbaldehyde semicarbazone], in experiment [1], the half-maximal inhibitory concentration (IC50) was 10 ± 3 nM and the Ki was determined as 5 ± 2 nM. The “selectivity ratio (CPB2.8∆CTE/BtCatB)” value in experiment [2] was < 0.00033. Besides, in experiment [3], the 50% inhibitory concentration (IC50) is > 30000 nM.
Turning to `COc1ncccc1Nc1nc(C#N)nc(NC2CCCCC2)n1` [CP241026, 4-(cyclohexylamino)-6-[(2-methoxy-3-pyridinyl)amino]-1,3,5-triazine-2-carbonitrile], the IC50 in experiment [1] came out at 1100 ± 150 nM; in experiment [3], 13800 ± 4500 nM. The compound further returned a Ki in experiment [1] of 570 ± 80 nM.
Compound `NC(=S)NN=Cc1c(-c2ccccc2)[nH]c2ccccc12` [CP247128, 2-phenyl-1H-indole-3-carbaldehyde thiosemicarbazone] showed an IC50 in experiment [1] of 60 ± 10 nM.
For `COc1ccc(-c2ccc(/C=N/NC(N)=S)o2)cc1` [CP247129, 5-(4-methoxy-phenyl)-2-furanyl-2-carbaldehyde thiosemicarbazone], in experiment [1], the half-maximal inhibitory concentration (IC50) worked out at 70 ± 40 nM and the Ki came out at 40 ± 20 nM. The IC50 in experiment [3] was > 30000 nM.
